The record followed here is publication PMC7948737, “Structures and mechanism of human glycosyltransferase β1,3-N-acetylglucosaminyltransferase 2 (B3GNT2), an important player in immune homeostasis” (The Journal of Biological Chemistry, 2020).

Usually Kd stands for the equilibrium constant for the complex coming apart. A lower Kd goes with higher affinity. One may read the stoichiometry N as a count of units in the complex or per binding partner.

The target of data set [1] is T1, β1,3-N-acetylglucosaminyltransferase 2 (B3GNT2) (Homo sapiens, UniProt Q9NY97).
T1 construct: luminal domain, Lys45-Cys397 (crystal); Lys29-Cys397 (kinetics)
T1 sequence (Q9NY97 29-397): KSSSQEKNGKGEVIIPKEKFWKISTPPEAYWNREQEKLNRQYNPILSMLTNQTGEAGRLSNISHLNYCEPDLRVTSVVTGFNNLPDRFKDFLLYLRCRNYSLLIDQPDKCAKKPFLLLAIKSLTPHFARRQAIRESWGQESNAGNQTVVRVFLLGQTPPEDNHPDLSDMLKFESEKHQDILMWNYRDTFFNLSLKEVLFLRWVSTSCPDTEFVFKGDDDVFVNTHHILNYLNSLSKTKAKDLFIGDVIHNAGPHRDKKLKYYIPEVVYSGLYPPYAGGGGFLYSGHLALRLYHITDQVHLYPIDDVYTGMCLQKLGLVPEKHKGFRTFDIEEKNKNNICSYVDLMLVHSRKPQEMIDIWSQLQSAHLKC
As to the kind of experiment: crystal structure ([…] Å, soak); binary-complex dissociation constant from UDP-Glo kinetics. It counts as biochemical.

For data set [2], the target named is T2, β1,3-N-acetylglucosaminyltransferase 2 (B3GNT2) (Homo sapiens, UniProt Q9NY97).
T2 construct: luminal domain, Lys45-Cys397 (crystal)
T2 sequence (Q9NY97 45-397): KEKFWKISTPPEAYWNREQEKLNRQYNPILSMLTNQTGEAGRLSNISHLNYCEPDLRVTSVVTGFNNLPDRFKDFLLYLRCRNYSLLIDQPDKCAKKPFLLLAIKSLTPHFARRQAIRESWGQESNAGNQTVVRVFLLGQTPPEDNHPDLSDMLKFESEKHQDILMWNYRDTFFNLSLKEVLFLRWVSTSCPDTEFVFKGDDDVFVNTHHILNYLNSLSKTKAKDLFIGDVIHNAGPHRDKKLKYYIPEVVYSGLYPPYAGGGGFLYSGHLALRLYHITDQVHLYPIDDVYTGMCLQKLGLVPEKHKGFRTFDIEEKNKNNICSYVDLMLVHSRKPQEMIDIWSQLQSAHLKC
As to the kind of experiment: crystal structure ([…] Å) and SPR steady-state affinity. The format is binding.

In data set [3] the target is human B3GNT2 luminal domain (construct of the analytical size exclusion chromatography, limits not told) (human). Kind of data set: SEC; analytical size exclusion chromatography, Superdex 200 10/300, 20 mM Hepes-NaOH pH 7.5 with 150 mM NaCl (buffer C) or 250 mM NaCl, 50 mM imidazole, 1 mM MgCl2, 0.5 mM DTT (buffer D); Bio-Rad molecular weight standards.
Data set [4] addresses T2, β1,3-N-acetylglucosaminyltransferase 2 (B3GNT2). Kind of data set: crystal structure ([…] Å, soak) and SPR steady-state affinity. The format is binding.
Data set [5] deals with the molecule itself. As to the kind of experiment: crystal structure; sitting/hanging-drop vapor diffusion at 4 °C, 24% PEG1500, 20% glycerol; apo, soaked or co-crystallised with UDP, UDP-GlcNAc, LacNAc; dimer related by crystallographic symmetry.

In data set [1], `CC(=O)N[C@H]1C(O)O[C@H](CO)[C@@H](O[C@@H]2O[C@H](CO)[C@H](O)[C@H](O)[C@H]2O)[C@@H]1O` (stereo partly drawn) [LacNAc] yielded a Kd of 8990 ± 1750 µM.

On to `O=c1ccn([C@@H]2O[C@H](COP(=O)(O)OP(=O)(O)O)[C@@H](O)[C@H]2O)c(=O)[nH]1` [UDP], for which the equilibrium dissociation constant (Kd) in data set [2] was around 260 µM.

In turn, “human B3GNT2 luminal domain (construct of the analytical size exclusion chromatography, limits not told) (domain or fragment)” came in with a stoichiometry N in data set [3] of 2.

Regarding `CC(=O)N[C@H]1[C@@H](OP(=O)(O)OP(=O)(O)OC[C@H]2O[C@@H](n3ccc(=O)[nH]c3=O)[C@H](O)[C@@H]2O)O[C@H](CO)[C@@H](O)[C@@H]1O` [UDP-GlcNAc], the Kd in data set [4] is around 140 µM.

B1: human B3GNT2 luminal domain (Ser31–Cys397) (domain or fragment, UniProt Q9NY97 31-397, looked up)
chain: SSQEKNGKGEVIIPKEKFWKISTPPEAYWNREQEKLNRQYNPILSMLTNQTGEAGRLSNISHLNYCEPDLRVTSVVTGFNNLPDRFKDFLLYLRCRNYSLLIDQPDKCAKKPFLLLAIKSLTPHFARRQAIRESWGQESNAGNQTVVRVFLLGQTPPEDNHPDLSDMLKFESEKHQDILMWNYRDTFFNLSLKEVLFLRWVSTSCPDTEFVFKGDDDVFVNTHHILNYLNSLSKTKAKDLFIGDVIHNAGPHRDKKLKYYIPEVVYSGLYPPYAGGGGFLYSGHLALRLYHITDQVHLYPIDDVYTGMCLQKLGLVPEKHKGFRTFDIEEKNKNNICSYVDLMLVHSRKPQEMIDIWSQLQSAHLKC
modifications: N-glycans assigned at Asn127, Asn173 and Asn219
notes: human B3GNT2 (β-1,3-N-acetylglucosaminyltransferase 2), UniProt Q9NY97, luminal domain, residues Ser31–Cys397; Expressed with an N-terminal gp64 secretion signal peptide; 8×His tag cleaved by TEV protease; Used for the iodide derivative structure (SAD phasing, 2.50 Å); also called B3GNT2 Ser31-Cys397; iodide derivative; source: sf9 cells (baculovirus), secreted into medium, purified (Ni-NTA, size …)
On to B1, for which the binding result in data set [5] is given as “binds”.

B2: human B3GNT2 luminal domain (Lys45–Cys397) (domain or fragment, UniProt Q9NY97 45-397, looked up)
chain: KEKFWKISTPPEAYWNREQEKLNRQYNPILSMLTNQTGEAGRLSNISHLNYCEPDLRVTSVVTGFNNLPDRFKDFLLYLRCRNYSLLIDQPDKCAKKPFLLLAIKSLTPHFARRQAIRESWGQESNAGNQTVVRVFLLGQTPPEDNHPDLSDMLKFESEKHQDILMWNYRDTFFNLSLKEVLFLRWVSTSCPDTEFVFKGDDDVFVNTHHILNYLNSLSKTKAKDLFIGDVIHNAGPHRDKKLKYYIPEVVYSGLYPPYAGGGGFLYSGHLALRLYHITDQVHLYPIDDVYTGMCLQKLGLVPEKHKGFRTFDIEEKNKNNICSYVDLMLVHSRKPQEMIDIWSQLQSAHLKC
modifications: N-glycans assigned at Asn127, Asn173 and Asn219
notes: human B3GNT2 (β-1,3-N-acetylglucosaminyltransferase 2), UniProt Q9NY97, luminal domain, residues Lys45–Cys397; Expressed with an N-terminal gp64 secretion signal peptide; 8×His tag cleaved by TEV protease; Used for all structures except the iodide derivative; also called B3GNT2 Lys45-Cys397; B3GNT2_apo; source: sf9 cells (baculovirus), secreted into medium, purified (Ni-NTA, size exclusion …)
With B2, in data set [5], the binding result is “binds”.
